The target of this assay is LSD1 (Homo sapiens, UniProt O60341). The experiment in a line: Biochemical assay for LSD1 activity (LSD1 demethylase TR-FRET). As to conditions: biotinylated H3K4me1 peptide, 50 minutes at room temperature, TR-FRET, read-out: LSD1_Pep_TR-FRET_1.0 (IC50 T50). (In general: In TR-FRET formats the signal depends on donor and acceptor labels being close together.)

Structures can show the parent of a compound that is named as a salt. Where two headings read alike, the source gives them in different places. Bounds are passed on as bounds.

What is called IC50 is the midpoint of a concentration-inhibition curve. On to `CNC(=O)CCCN[C@H]1CC[C@@H](N[C@@H]2C[C@H]2/C(C)=C/c2ccccc2)CC1` (single isomer, unassigned) [Compound 145, N-methyl-4-(((cis)-4-(((trans)-2-((E)-1-phenylprop-1-en-2-yl)cyclopropyl)amino)cyclohexyl)amino)butanamide bis(trifluoroacetic acid) salt], for which the half-inhibitory concentration (IC50) (Table 6) was below 100 nM. In the case of `F/C(=C\c1ccccc1)C1CC1NCC1CCNCC1` (racemic) [Compound 108, Racemic 2-((Z)-1-fluoro-2-phenylvinyl)-N-(piperidin-4-ylmethyl)cyclopropanamine Dihydrochloride], where the note is “Table 5”, the IC50 fell in the range of 100 to 1000 nM. Take `CC/C(=C\c1ccccc1)[C@@H]1C[C@H]1NCC1(C)CNC1` (racemic) [Compound 243]: the IC50 (Table 7) is below 100 nM.

The record behind these values is US10526287B2, “LSD1 inhibitors and uses thereof” (Constellation Pharmaceuticals, Inc., priority 2015, dated 2020).
